The values that follow come from patent US20110224159A1, “BIDESMOSIDIC BETULIN AND BETULINIC ACID DERIVATIVES AND USES THEREOF AS ANTITUMOR AGENTS” (Universite du Quebec a Chicoutime, priority 2008, published 2011).

Entries after “also recorded” stand apart in the source; their conditions may differ. Read-outs that look alike come from different tables or passages of the source. Bounds are passed on as bounds.

Data set [1] deals with breast adenocarcinoma (MCF7). Put plainly: Cytotoxicity assay (resazurin reduction, 48 h), MCF7. Format: cell-based, human. As to the method: (§1) Human lung carcinoma (A549, ATCC # CCL-185™), human colorectal adenocarcinoma (DLD-1, ATCC # CCL-221™), human breast adenocarcinoma (MCF7, ATCC # HTB-22™), human prostate adenocarcinoma (PC-3, ATCC # CCL-1435™) and human normal skin fibroblasts (WS1, ATCC # CRL-1502™) cell lines were obtained from the American Type Culture Collection (ATCC). All cell lines were cultured in minimum essential medium containing Earle's salts and L-glutamine (Mediatech Cellgro, VA), to which were added 10% fetal bovine serum (Hyclone), vitamins (1×), penicillin (100 IU/mL) and streptomycin (100 μg/mL), essential amino acids (1×), and sodium pyruvate (1×) (Mediatech Cellgro, VA). Cells were kept at 37° C. in a humidified environment containing 5% CO2.
(§2) Exponentially growing cells were plated in 96-well microplates (Costar, Corning Inc.) at a density of 5×10^3 cells per well in 100 μL of culture medium and were allowed to adhere for 16 h before treatment. Increasing concentrations of each compound in biotechnology performed certified dimethyl sulfoxide (DMSO) (Sigma-Aldrich, Cat. # D2438) and the cells were incubated for 48 h. The final concentration of DMSO in the culture medium was maintained at 0.5% (v/v) to avoid solvent toxicity. Cytotoxicity was assessed using resazurin (O'Brien, J. et al., 2000. Eur J Biochem 267(17): 5421-6) on an automated 96-well Fluoroskan Ascent F1™ plate reader (Labsystems) using excitation and emission wavelengths of 530 and 590 nm, respectively. Fluorescence was proportional to the cellular metabolic activity in each well. Survival percentage was defined as the fluorescence in experimental wells compared to that in control wells after subtraction of blank values. Each experiment was carried out twice in triplicate. IC50 results are expressed as mean±standard deviation.
(§3) In vitro cytotoxic activity of lupane-type bidesmosidic saponins was evaluated against four human cancer cell lines including lung carcinoma (A549), and colorectal (DLD-1), breast (MCF7) and prostate (PC-3) adenocarcinomas. The parent triterpenoids betulin (1) (Gauthier et al., 2006, supra), betulinic acid (2) (Kessler, J. H. et al., Cancer Lett. 2007, 251: 132-145) and the clinically used etoposide were used as positive controls. The cytotoxicity of 28-O-β-D-glucopyranosides of betulin (Gauthier et al., 2006, supra) and betulinic acid (Baglin et al., 2003, supra) was also investigated. The cell viability was assessed through resazurin reduction test (O'Brien et al, 2000, supra) after 48 hours of incubation between the compounds and cells. Since resazurin (Alamar blue) is a nontoxic dye, measurements can be obtained without killing the cells as opposed to the standard MTT assay (Bellamy, W. T. Drugs 1992, 44: 690-708). The cytotoxicity results were expressed as the concentration inhibiting 50% of the cell growth (IC50).

Data set [2] concerns colorectal adenocarcinoma (DLD-1). Put plainly: Cytotoxicity assay (resazurin reduction, 48 h), DLD-1. The data set is classed as cell-based. The following applies: mean ± SD. As to the method: as §1, §2, §3
Background: Resazurin is reduced to fluorescent resorufin, in cell work by metabolically active cells.

For data set [3], the system named is tested cancer cell lines (A549, DLD-1, MCF7, PC-3). The data set can be described thus: Cytotoxicity assay (resazurin reduction, 48 h), summary over the tested cancer cell lines. Format: cell-based, human. Conditions: for cytotoxicity compared with reference or other tested compounds: tested cancer cell lines, P<0.05 where stated; for IC50: range or bound over the cell lines, read-out: IC50 against the tested cancer cell lines. As to the method:
as §1, §2
as §3, with “The cytotoxicity results were expressed as the concentration inhibiting 50% of the cell growth (IC50).” left out

The subject of data set [4] is prostate adenocarcinoma (PC-3). The data set can be described thus: Cytotoxicity assay (resazurin reduction, 48 h), PC-3. The data set is classed as cell-based, human. As to the method: as §1, §2, §3
The subject of data set [5] is lung carcinoma (A549). Put plainly: Cytotoxicity assay (resazurin reduction, 48 h), A549. The data set is classed as cell-based, human. As to the method: as §1, §2, §3
For data set [6], the system named is lung carcinoma (A549). The following applies: human lung carcinoma; footnote g: previously reported in Gauthier et al. 2006; cited from earlier work.
The test system of data set [7] is colorectal adenocarcinoma (DLD-1). The following applies: human colorectal adenocarcinoma; footnote g: previously reported in Gauthier et al. 2006; cited from earlier work.
Where [8] appears, read: human breast adenocarcinoma, 48 h, resazurin, mean ± SD, read-out: IC50 MCF7.
Where [9] appears, read: human colorectal adenocarcinoma.
[10] abbreviates: human prostate adenocarcinoma, 48 h, resazurin, mean ± SD, read-out: IC50 PC-3.
[11] abbreviates: human lung carcinoma, 48 h, resazurin, mean ± SD.

The IC50 is the concentration that gives 50% inhibition. For the compound “28-O-α-L-Rhamnopyranosyl betulinic acid 3β-O-α-L-rhamnopyranoside [Compound 22b]”, the IC50 is 6 ± 0.6 µM in data set [1] (setting [8]), 7.3 ± 0.3 µM in data set [2] (setting [9]), 7.2 ± 0.5 µM in data set [4] (setting [10]) and 7.2 ± 0.5 µM with lung carcinoma (A549) [5] (setting [11]). The “cytotoxicity compared with reference or other tested compounds” value in data set [3] is “significantly more active than their parent triterpenoids”.

For “28-O-β-D-Glucopyranosyl betulin 313-O-α-L-rhamnopyranoside [Compound 16b]”, the IC50 in data set [1] (setting [8]) came to 9 ± 0.7 µM; in data set [2] (setting [9]), 10.6 ± 0.9 µM; in data set [4] (setting [10]) it was 6.9 ± 0.4 µM; in the data set with lung carcinoma (A549) [5] (setting [11]), 16.8 ± 0.9 µM.

Consider “28-O-β-D-Glucopyranosyl betulin [Compound 28GBet, reference compound]”, for which the half-inhibitory concentration (IC50) (in data set [1] (setting [8]); in the data set with lung carcinoma (A549) [6]; in data set [2] (setting [9]); in data set [4] (setting [10])) was greater than 100 µM in each case.

For the compound `C=C(C)[C@@H]1CC[C@]2(C(=O)O)CC[C@]3(C)[C@H](CC[C@@H]4[C@@]5(C)CC[C@H](O)C(C)(C)[C@@H]5CC[C@]43C)[C@@H]12` [Compound 2, Betulinic acid], the IC50 in data set [1] (setting [8]) was 41 ± 1 µM; in data set [7], 15 µM; in the data set with lung carcinoma (A549) [6], 10.3 ± 0.4 µM; in data set [4] (setting [10]), 40 ± 2 µM.

As to `C=C(C)[C@@H]1CC[C@]2(C(=O)O[C@@H]3O[C@H](CO)[C@@H](O)[C@H](O)[C@H]3O)CC[C@]3(C)[C@H](CC[C@@H]4[C@@]5(C)CC[C@H](O[C@@H]6OC[C@H](O)[C@H](O)[C@H]6O)C(C)(C)[C@@H]5CC[C@]43C)[C@@H]12` [Compound 3, 28-O-β-D-Glucopyranosyl betulinic acid 3β-O-α-L-arabinopyranoside], the half-maximal inhibitory concentration (IC50) is 23 ± 1 µM in data set [1] (setting [8]); 60 ± 5 µM in data set [2] (setting [9]); 23 to 76 µM in data set [3]; 68 ± 7 µM in data set [4] (setting [10]); 76 ± 4 µM with lung carcinoma (A549) [5] (setting [11]).

For `C=C(C)[C@@H]1CC[C@]2(CO[C@@H]3O[C@H](CO)[C@@H](O)[C@H](O)[C@H]3O)CC[C@]3(C)[C@H](CC[C@@H]4[C@@]5(C)CC[C@H](O[C@@H]6OC[C@H](O)[C@H](O)[C@H]6O)C(C)(C)[C@@H]5CC[C@]43C)[C@@H]12` [Compound 16a, 28-O-β-D-Glucopyranosyl betulin 313-O-α-L-arabinopyranoside], the IC50 is 9.5 µM in data set [1] (breast adenocarcinoma (MCF7), read-out: IC50 against MCF7); 19 ± 2 µM in data set [2] (setting [9]); 5.3 µM in data set [4] (PC-3 cell line, read-out: IC50 against PC-3); greater than 100 µM in the data set on lung carcinoma (A549) [5] (setting [11]).

Consider `C=C(C)[C@@H]1CC[C@]2(C(=O)O[C@@H]3O[C@H](CO)[C@@H](O)[C@H](O)[C@H]3O)CC[C@]3(C)[C@H](CC[C@@H]4[C@@]5(C)CC[C@H](O[C@@H]6O[C@@H](C)[C@H](O)[C@@H](O)[C@H]6O)C(C)(C)[C@@H]5CC[C@]43C)[C@@H]12` [Compound 19, 28-O-β-D-Glucopyranosyl betulinic acid 3β-O-α-L-rhamnopyranoside], for which the 50% inhibitory concentration (IC50) in data set [1] (setting [8]) came to 5.7 ± 0.6 µM; in data set [2] (setting [9]), 11 ± 0.5 µM; in data set [4] (setting [10]), 11.2 ± 0.8 µM; in the data set with lung carcinoma (A549) [5] (setting [11]) it was 23 ± 1 µM.

In the case of `C=C(C)[C@@H]1CC[C@]2(CO[C@@H]3O[C@H](CO)[C@@H](O)[C@H](O)[C@H]3O)CC[C@]3(C)[C@H](CC[C@@H]4[C@@]5(C)CC[C@H](O[C@@H]6O[C@H](CO)[C@@H](O)[C@H](O)[C@H]6O)C(C)(C)[C@@H]5CC[C@]43C)[C@@H]12` [Compound 21a, 28-O-β-D-Glucopyranosyl betulin 3β-O-β-D-glucopyranoside], the “cytotoxicity compared with betulinic acid, MCF7” value in data set [1] (breast adenocarcinoma (MCF7)) is “significantly more active than betulinic acid (2)”. In addition, the IC50 is 14.5 ± 0.9 µM in data set [1] (setting [8]), 27 ± 2 µM in data set [2] (setting [9]), greater than 100 µM in data set [4] (setting [10]) and greater than 100 µM in the data set on lung carcinoma (A549) [5] (setting [11]).

On to `C=C(C)[C@@H]1CC[C@]2(C(=O)O[C@@H]3O[C@H](CO)[C@@H](O)[C@H](O)[C@H]3O)CC[C@]3(C)[C@H](CC[C@@H]4[C@@]5(C)CC[C@H](O[C@@H]6O[C@H](CO)[C@@H](O)[C@H](O)[C@H]6O)C(C)(C)[C@@H]5CC[C@]43C)[C@@H]12` [Compound 21b, 28-O-β-D-Glucopyranosyl betulinic acid 3β-O-β-D-glucopyranoside], for which, in data set [1] (breast adenocarcinoma (MCF7)), the “cytotoxicity compared with betulinic acid, MCF7” value is given as “significantly more active than betulinic acid (2)”. Besides, the IC50 was 20 ± 2 µM in data set [1] (setting [8]), greater than 100 µM in data set [2] (setting [9]), 66 ± 3 µM in data set [4] (setting [10]) and greater than 100 µM in the data set on lung carcinoma (A549) [5] (setting [11]).

On to `C=C(C)[C@@H]1CC[C@]2(CO[C@@H]3O[C@@H](C)[C@H](O)[C@@H](O)[C@H]3O)CC[C@]3(C)[C@H](CC[C@@H]4[C@@]5(C)CC[C@H](O[C@@H]6O[C@@H](C)[C@H](O)[C@@H](O)[C@H]6O)C(C)(C)[C@@H]5CC[C@]43C)[C@@H]12` [Compound 22a, 28-O-α-L-Rhamnopyranosyl betulin 3β-O-α-L-rhamnopyranoside], for which the IC50 was 1.7 ± 0.2 µM in data set [1] (setting [8]); 1.9 ± 0.1 µM in data set [2] (setting [9]); 1.7 to 1.9 µM in data set [3]; 1.8 ± 0.1 µM in data set [4] (setting [10]); 1.9 ± 0.1 µM with lung carcinoma (A549) [5] (setting [11]). In addition, the “cytotoxicity compared with reference or other tested compounds” value in data set [3] is recorded as “significantly more active than their parent triterpenoids; also recorded: the most potent of all tested compounds”.

For `C=C(C)[C@@H]1CC[C@]2(C(=O)O[C@@H]3O[C@H](CO)[C@@H](O)[C@H](O)[C@H]3O)CC[C@]3(C)C(CC[C@@H]4[C@@]5(C)CC[C@H](O)C(C)(C)[C@@H]5CC[C@]43C)[C@H]12` (stereo partly drawn) [Compound 28GBetA, 28-O-β-D-glucopyranosyl betulinic acid, reference compound], the IC50 (in data set [1] (setting [8]); in data set [2] (setting [9]); in data set [4] (setting [10]); in the data set with lung carcinoma (A549) [5] (setting [11])) was greater than 100 µM each time.

With `COc1cc([C@@H]2c3cc4c(cc3[C@@H](O[C@@H]3O[C@@H]5CO[C@@H](C)O[C@H]5[C@H](O)[C@H]3O)[C@H]3COC(=O)[C@H]23)OCO4)cc(OC)c1O` [Etoposide, etoposide, reference compound], the IC50 in data set [2] (DLD-1, human colorectal adenocarcinoma) was determined as 27 ± 5 µM; in the data set on lung carcinoma (A549) [5] (A549, human lung carcinoma, 48 h, resazurin, mean ± SD), 3.4 ± 0.1 µM.

In the data set on lung carcinoma (A549) [5] (A549, comparator named in text), “betulinic acid 3 β-O-α-L-rhamnopyranoside [reference compound]” registered an IC50 of 3.8 µM.
